Reference: ChEMBL document CHEMBL1201862, “PubChem BioAssay data set” (2004)
Each block holds one compound with its values, some of them ahead of it. The source made the active and inactive calls.

How the values were obtained:
[1] = Luminescence Cell-Based Dose Retest to Confirm Inhibitors of Cancer Stem Cells. [Related pubchem assays (depositor defined):AID2717, AID2721]; type: functional; settings: Homo sapiens
Protein skinhead-1 = molecular target: T1, Protein skinhead-1 (Caenorhabditis elegans, UniProt P34707); type: functional
T1 sequence (P34707 whole entry): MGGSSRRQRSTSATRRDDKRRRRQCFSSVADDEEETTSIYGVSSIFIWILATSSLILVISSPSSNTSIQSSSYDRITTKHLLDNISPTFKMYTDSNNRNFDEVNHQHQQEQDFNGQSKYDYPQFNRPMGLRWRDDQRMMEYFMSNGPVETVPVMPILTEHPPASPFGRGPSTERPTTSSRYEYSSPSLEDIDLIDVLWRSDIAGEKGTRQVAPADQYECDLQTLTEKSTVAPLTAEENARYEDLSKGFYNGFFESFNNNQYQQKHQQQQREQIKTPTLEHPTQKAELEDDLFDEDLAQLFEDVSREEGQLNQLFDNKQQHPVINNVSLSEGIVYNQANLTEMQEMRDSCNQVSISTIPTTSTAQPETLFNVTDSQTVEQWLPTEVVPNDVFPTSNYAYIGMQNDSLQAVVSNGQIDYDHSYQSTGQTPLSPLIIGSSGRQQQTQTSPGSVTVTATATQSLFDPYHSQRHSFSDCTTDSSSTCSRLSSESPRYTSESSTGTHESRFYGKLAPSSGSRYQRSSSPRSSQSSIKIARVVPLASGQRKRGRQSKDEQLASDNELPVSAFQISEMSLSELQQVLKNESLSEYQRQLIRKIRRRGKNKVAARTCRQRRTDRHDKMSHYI

[2] = molecular target: T2, Heat shock factor protein 1 (Mus musculus, UniProt P38532); experiment: decrease of HSF1-responsive luciferase luminescence – cell-based, NIH3T3, dose retest, confirmation (AID 2382); type: functional;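 also: NIH3T3 fibroblasts with HSF1-driven luciferase reporter stressed by proteasome inhibitor MG132; luminescence from HSF1-driven luciferase expression after 8 hours of MG132 stress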
T2 sequence (P38532 whole entry): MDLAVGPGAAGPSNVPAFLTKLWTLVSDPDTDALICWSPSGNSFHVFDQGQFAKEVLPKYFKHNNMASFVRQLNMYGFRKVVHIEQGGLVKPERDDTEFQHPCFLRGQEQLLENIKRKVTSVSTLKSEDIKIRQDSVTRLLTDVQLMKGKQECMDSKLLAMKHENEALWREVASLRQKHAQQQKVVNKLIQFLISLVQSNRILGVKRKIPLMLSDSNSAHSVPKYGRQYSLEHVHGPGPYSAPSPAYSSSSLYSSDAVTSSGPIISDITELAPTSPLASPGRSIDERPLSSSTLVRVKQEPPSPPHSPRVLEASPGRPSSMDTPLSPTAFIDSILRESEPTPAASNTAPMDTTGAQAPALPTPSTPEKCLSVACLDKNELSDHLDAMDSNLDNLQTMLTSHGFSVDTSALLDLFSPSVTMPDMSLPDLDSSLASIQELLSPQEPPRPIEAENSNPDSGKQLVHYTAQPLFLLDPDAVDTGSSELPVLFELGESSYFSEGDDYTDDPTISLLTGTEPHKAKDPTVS

Cytochrome P450 2C9 = Cytochrome P450 2C9 (Homo sapiens, UniProt P11712)
Sequence of Cytochrome P450 2C9 (P11712 whole entry): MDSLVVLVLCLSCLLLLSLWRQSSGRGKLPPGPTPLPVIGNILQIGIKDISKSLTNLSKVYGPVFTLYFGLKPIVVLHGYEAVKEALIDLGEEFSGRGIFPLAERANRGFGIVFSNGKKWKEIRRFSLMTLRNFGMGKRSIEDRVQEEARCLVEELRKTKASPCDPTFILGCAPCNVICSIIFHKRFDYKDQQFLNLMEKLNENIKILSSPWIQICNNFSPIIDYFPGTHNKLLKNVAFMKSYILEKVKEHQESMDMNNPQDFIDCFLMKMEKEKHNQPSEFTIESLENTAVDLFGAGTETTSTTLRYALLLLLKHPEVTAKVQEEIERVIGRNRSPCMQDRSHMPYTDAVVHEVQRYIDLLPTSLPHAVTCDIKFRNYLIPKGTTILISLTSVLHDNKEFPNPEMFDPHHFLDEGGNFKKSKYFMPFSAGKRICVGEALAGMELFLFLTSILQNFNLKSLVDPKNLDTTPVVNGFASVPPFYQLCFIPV

Cytochrome P450 2C19 = Cytochrome P450 2C19 (Homo sapiens, UniProt P33261); experiment: Cytochrome panel assay with activity outcomes. Panel member name: p450-cyp2c19 Compounds with AC50 equal or less than 10 uM are considered active; type: functional
Sequence of Cytochrome P450 2C19 (P33261 whole entry): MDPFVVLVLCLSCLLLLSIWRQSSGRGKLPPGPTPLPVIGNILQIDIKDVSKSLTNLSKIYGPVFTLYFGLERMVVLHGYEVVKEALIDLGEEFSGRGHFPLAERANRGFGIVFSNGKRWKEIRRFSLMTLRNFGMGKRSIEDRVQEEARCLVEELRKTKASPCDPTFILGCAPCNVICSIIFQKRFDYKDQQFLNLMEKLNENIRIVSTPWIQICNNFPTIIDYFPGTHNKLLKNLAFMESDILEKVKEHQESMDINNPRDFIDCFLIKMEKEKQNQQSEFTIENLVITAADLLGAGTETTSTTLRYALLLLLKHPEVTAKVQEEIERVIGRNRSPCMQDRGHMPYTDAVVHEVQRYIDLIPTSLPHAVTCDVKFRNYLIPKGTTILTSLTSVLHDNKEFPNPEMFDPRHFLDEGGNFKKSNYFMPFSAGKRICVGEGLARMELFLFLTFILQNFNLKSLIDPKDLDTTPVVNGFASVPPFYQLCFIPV

Cytochrome P450 1A2 = molecular target: T3, Cytochrome P450 1A2 (Homo sapiens, UniProt P05177);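 also: PubChem cytochrome P450 panel assay, CYP1A2 panel member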
T3 sequence (P05177 whole entry): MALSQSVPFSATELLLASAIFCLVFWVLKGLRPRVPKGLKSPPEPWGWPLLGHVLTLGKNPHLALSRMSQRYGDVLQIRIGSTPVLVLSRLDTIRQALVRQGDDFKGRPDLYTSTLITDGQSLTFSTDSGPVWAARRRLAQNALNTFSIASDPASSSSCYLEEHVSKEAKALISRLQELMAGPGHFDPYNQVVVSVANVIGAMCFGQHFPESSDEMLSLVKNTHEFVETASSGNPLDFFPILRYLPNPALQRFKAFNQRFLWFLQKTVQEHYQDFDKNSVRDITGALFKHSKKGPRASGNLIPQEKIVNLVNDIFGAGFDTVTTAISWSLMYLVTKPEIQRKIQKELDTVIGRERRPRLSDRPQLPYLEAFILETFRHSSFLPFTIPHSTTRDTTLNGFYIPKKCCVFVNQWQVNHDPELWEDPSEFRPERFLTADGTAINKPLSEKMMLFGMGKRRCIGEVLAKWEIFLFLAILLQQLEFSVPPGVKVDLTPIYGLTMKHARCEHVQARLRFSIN

Cytochrome P450 2D6 = Cytochrome P450 2D6 (Homo sapiens, UniProt P10635);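 also: CYP2D6 member of a cytochrome P450 panel assay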
Sequence of Cytochrome P450 2D6 (P10635 whole entry): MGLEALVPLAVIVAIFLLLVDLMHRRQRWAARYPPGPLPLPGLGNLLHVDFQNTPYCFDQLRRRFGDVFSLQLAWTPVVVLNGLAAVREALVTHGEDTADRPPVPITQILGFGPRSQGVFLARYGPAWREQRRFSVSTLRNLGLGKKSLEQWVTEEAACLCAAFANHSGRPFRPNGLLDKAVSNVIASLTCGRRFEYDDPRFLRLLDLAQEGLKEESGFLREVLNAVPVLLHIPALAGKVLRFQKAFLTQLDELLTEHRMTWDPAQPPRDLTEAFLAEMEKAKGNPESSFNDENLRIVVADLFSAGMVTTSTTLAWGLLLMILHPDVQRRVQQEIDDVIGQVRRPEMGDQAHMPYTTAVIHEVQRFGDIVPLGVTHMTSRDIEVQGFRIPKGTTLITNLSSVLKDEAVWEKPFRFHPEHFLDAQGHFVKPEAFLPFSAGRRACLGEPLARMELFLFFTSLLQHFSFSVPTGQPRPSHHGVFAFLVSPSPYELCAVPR

[3] = molecular target: T4, Corticotropin-releasing factor receptor 2/Corticotropin-releasing factor-binding protein (Homo sapiens, UniProt P24387+Q13324); experiment: activators of CRF receptor 2 with binding protein – uHTS hits, confirmation (AID 602473); type: functional; settings: read-out: EC50_Mean
T4 sequence (Q13324 whole entry): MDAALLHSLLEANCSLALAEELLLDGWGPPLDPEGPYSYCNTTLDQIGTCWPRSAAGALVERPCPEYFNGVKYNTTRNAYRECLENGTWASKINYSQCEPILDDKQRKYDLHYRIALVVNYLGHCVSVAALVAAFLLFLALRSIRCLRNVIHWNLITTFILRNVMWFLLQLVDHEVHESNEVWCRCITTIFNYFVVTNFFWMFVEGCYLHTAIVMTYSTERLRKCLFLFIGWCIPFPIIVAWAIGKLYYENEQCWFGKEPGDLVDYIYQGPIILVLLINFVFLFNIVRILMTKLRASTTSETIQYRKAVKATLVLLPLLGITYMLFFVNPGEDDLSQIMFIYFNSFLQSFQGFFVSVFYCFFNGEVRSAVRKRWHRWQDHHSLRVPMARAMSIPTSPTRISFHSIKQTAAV
T4 sequence (P24387 whole entry): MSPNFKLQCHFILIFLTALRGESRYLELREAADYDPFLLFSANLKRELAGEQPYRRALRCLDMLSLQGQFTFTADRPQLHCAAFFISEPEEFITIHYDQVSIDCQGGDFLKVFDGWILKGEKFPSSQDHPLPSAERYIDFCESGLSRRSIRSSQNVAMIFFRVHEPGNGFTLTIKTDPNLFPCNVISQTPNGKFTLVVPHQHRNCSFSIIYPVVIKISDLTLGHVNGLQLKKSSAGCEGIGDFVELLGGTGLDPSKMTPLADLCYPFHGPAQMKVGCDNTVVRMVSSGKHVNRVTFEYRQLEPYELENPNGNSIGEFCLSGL

- EC50 [2]: > 195 µM (not active)
SMILES: CN(Cc1ccccc1)C(=O)CCn1c(=O)oc2ccccc21

- AC50 (Cytochrome P450 2C19; read-out: AC50): 3.98 µM (inconclusive)
- AC50 (Cytochrome P450 1A2): 7.08 µM (inconclusive)
SMILES: CCOC(=O)c1ccc(NC(=O)COc2ccccc2OC)cc1

- IC50 (Protein skinhead-1): > 100 µM (inactive)
SMILES: OC(c1ccccn1)c1c[nH]c2ccccc12 (stereo not drawn)

- IC50 (Protein skinhead-1): > 100 µM (inactive)
SMILES: Cc1ccc(C)c(NC(=O)c2sc(Cl)nc2-c2ccccc2)c1

- EC50 [2]: > 195 µM (not active)
SMILES: CCn1c(=O)c(C(=O)Nc2ccccc2F)c(O)c2ccccc21

- IC50 (Protein skinhead-1): > 100 µM (inactive)
SMILES: COc1ccc(C2CC(c3ccccc3)=NN2S(=O)(=O)c2ccc(C)cc2)c(OC)c1 (stereo not drawn)

- IC50 (Protein skinhead-1): > 100 µM (inactive)
SMILES: O=C(OCC(=O)N1N=C(c2ccc(Cl)cc2)CC1c1ccco1)c1ccccc1O (stereo not drawn)

- IC50 (Protein skinhead-1): 13.4 µM (active)
SMILES: CC(C)c1nc(-c2ccc([N+](=O)[O-])cc2)cs1

- IC50 (Protein skinhead-1): > 100 µM (inactive)
- EC50 [2]: > 195 µM (not active)
SMILES: Cn1c(=O)c2ncn(CC(=O)Nc3ccc4c5c(cccc35)CC4)c2n(C)c1=O

- IC50 (Protein skinhead-1): > 100 µM (inactive)
SMILES: CCOC(=O)c1cc(-c2ccco2)nc2c1c(C)nn2-c1ccccc1

- EC50 [2]: > 195 µM (not active)
SMILES: O=C(COC(=O)[C@H](Cc1ccccc1)N1C(=O)c2ccccc2C1=O)Nc1ccc2c(c1)OCO2

- IC50 (Protein skinhead-1): > 100 µM (inactive)
SMILES: Cc1cccc(CC(=O)NCCn2c(C)cc3ccccc32)c1

- EC50 [2]: > 195 µM (not active)
SMILES: Cn1c(N2CCOCC2)nc(-c2ccccc2)c1-c1ccccc1

- EC50 [2]: > 195 µM (not active)
SMILES: Nc1nc(Cl)nc(N(c2ccccc2)c2ccccc2)n1

- EC50 [3]: 5.99 µM (active)
SMILES: O=C(NCc1cc(C(F)(F)F)ccc1Cl)c1cccc2c1C(=O)c1ccc(N3CCC(Cc4ccccc4)CC3)cc1S2(=O)=O

- IC50 (Protein skinhead-1): > 100 µM (inactive)
SMILES: CC(C)CC(C(=O)NCc1ccccn1)N1C(=O)c2ccccc2C1=O (stereo not drawn)

- IC50 (Protein skinhead-1): > 100 µM (inactive)
SMILES: COc1ccc(C(C)=O)cc1CN1C(=O)C(C)ON=C1c1cccc(C(F)(F)F)c1 (stereo not drawn)

Further lines, the compound ahead of its results:

SMILES: CCOC(=O)c1c(-c2ccc(Cl)cc2)csc1NC(=O)CNCc1ccco1
- AC50 [1]: 2.72 µM (active)

SMILES: Cc1cc(OCCCCN2C(=O)NC(C)(C)C2=O)cc(C)c1Cl
- IC50 (Protein skinhead-1): > 100 µM (inactive)

SMILES: Nc1ccc(/N=N\c2ccccc2)c(N)n1
- AC50 (Cytochrome P450 2C9): 15.8 µM (inconclusive)
- AC50 (Cytochrome P450 2C19; read-out: AC50): 7.94 µM (inconclusive)

SMILES: N#Cc1cccc(NC(=O)N2CC[C@@]3(CCCN(S(=O)(=O)c4ccccc4)C3)C2)c1
- AC50 (Cytochrome P450 2C9): 39.8 µM (inconclusive)
- AC50 (Cytochrome P450 2C19; read-out: AC50): 39.8 µM (inconclusive)
- AC50 (Cytochrome P450 1A2): 25.1 µM (inconclusive)
- AC50 (Cytochrome P450 2D6): 39.8 µM (inconclusive)

SMILES: CC(C)CN1CC[C@@]2(CCCN(C(=O)c3cc(C(F)(F)F)cc(C(F)(F)F)c3)C2)C1
- AC50 (Cytochrome P450 2C19; read-out: AC50): 39.8 µM (inconclusive)
- AC50 (Cytochrome P450 1A2): 25.1 µM (inconclusive)

SMILES: CCc1cc2c(=O)c(-c3nc4ccccc4n3C)c(C)oc2c(CN(CC)CC)c1O
- AC50 (Cytochrome P450 2C19; read-out: AC50): 3.55 µM (inconclusive)

SMILES: CCCCN=C(S)NNc1c(Cl)cc(Cl)cc1Cl
- EC50 [2]: > 195 µM (not active)

SMILES: Cn1ccnc1SCC(=O)N(C1CCCCC1)C1CCCCC1
- EC50 [2]: > 195 µM (not active)

SMILES: CC(C)(C)NC(=O)c1cccc(NC(=O)Cc2cccs2)c1
- EC50 [2]: > 195 µM (not active)

SMILES: O=C(/C=C/c1ccc2c(c1)OCO2)NCCSCc1c(Cl)cccc1Cl
- AC50 [1]: 1.42 µM (active)

SMILES: Cc1ccc(NC(=O)N2CCCC2C(=O)NCC2CCCCC2)cc1 (stereo not drawn)
- EC50 [2]: > 195 µM (not active)

SMILES: Cc1cccc(N2CCN(C(c3ccccc3)c3nnnn3CC3CCCO3)CC2)c1C (stereo not drawn)
- EC50 [2]: > 195 µM (not active)

SMILES: COc1ccc2nc(N3CCCC(C(=O)NCCCN4CCN(C)CC4)C3)sc2c1 (stereo not drawn)
- AC50 (Cytochrome P450 2C9): 4.47 µM (inconclusive)
- AC50 (Cytochrome P450 2C19): inconclusive
- AC50 (Cytochrome P450 1A2): 12.6 µM (inconclusive)

SMILES: O=C(Nc1ccc(Nc2ccccc2)cc1)Nc1ccccc1Cl
- AC50 [1]: 2.12 µM (active)

SMILES: CCOCC(=O)Nc1cccc(Br)c1
- IC50 (Protein skinhead-1): > 100 µM (inactive)

SMILES: CC(=O)Nc1cccc(NC(=O)CSc2nnc(Cc3cccn3C)n2-c2ccc(F)cc2)c1
- EC50 [2]: > 195 µM (not active)

SMILES: CC(=O)N(c1ccc2oc(=O)sc2c1)S(=O)(=O)c1ccc(C(=O)O)cc1
- EC50 [2]: > 195 µM (not active)

SMILES: CCCc1ccc(-c2cc(NC(=O)CSc3nnc(N)s3)n(-c3ccccc3)n2)cc1
- AC50 [1]: 3.72 µM (active)

SMILES: CN(C)CCNC(=O)c1sc2nc(-c3ccccc3)cc(C(F)(F)F)c2c1N
- AC50 [1]: 2.65 µM (active)

SMILES: Cc1ccc(S(=O)(=O)N2CCC(=O)N(C(COCc3ccc(Cl)c(Cl)c3)Cc3ccccc3)CC2)cc1 (stereo not drawn)
- EC50 [3]: 4.29 µM (active)

SMILES: c1nc(NCCN2CCOCC2)c2cc(-c3ccc4c(c3)OCO4)ccc2n1
- AC50 (Cytochrome P450 2C19; read-out: AC50): 39.8 µM (inconclusive)

SMILES: COc1ccc(-n2c(C)cc(/C=C3/SC(=S)N(C)C3=O)c2C)cc1
- EC50 [3]: > 53 µM (inactive)

SMILES: COc1ccc(NC(=O)NCCCN2CCCCC2C)cc1 (stereo not drawn)
- AC50 (Cytochrome P450 2C9): 1.26 µM (inconclusive)
- AC50 (Cytochrome P450 2C19; read-out: AC50): 39.8 µM (inconclusive)
- AC50 (Cytochrome P450 1A2): 25.1 µM (inconclusive)

SMILES: COc1ccc(C(=O)c2ccc3oc(-c4ccc(OC)cc4)c(-c4ccc(O)cc4)c3c2)cc1
- AC50 [1]: 3.31 µM (active)

SMILES: O=c1c2ccccc2oc2ccc(-c3ccc4cc[nH]c4c3)cc12
- IC50 (Protein skinhead-1): > 100 µM (inactive)
